Source: patent US20030194738A1, “Antisense oligonucleotide compositions and methods for the modulation of activating protein 1” (priority 1997, published 2003)
Strand notation (5' to 3'): a small letter for the sugar, then the base; units joined by * are phosphorothioate-linked, units joined directly phosphodiester-linked; [ ] holds rarer units or linkages, { } end groups; capitals alone tell only the bases. d = 2'-deoxy (DNA)

Experiments:
c-jun mRNA = c-jun mRNA expression in TPA-induced A549 cells, Northern blotting; type: cell-based, human; settings: for c-jun mRNA % CONTROL: 400 nM oligonucleotide with LIPOFECTIN, control is TPA induction, at 1 hour, in A549 cells; for inhibition of c-jun mRNA expression: 400 nM oligonucleotide, TPA-induced A549 cells
Protocol: In order to evaluate the activity of potential c-fos and c-jun modulating oligonucleotides, A549 cells were grown in T-75 flasks until 80-90% confluent. (Cell line A549 is available from, inter alia, the American Type Culture Collection, Rockville, Md., as ATCC No. CCL-185.) At this time, the cells were washed twice with 10 mL of media (DMEM), followed by the addition of 5 mL of DMEM containing 20 μg/mL of LIPOFECTIN™ (i.e., DOTMA/DOPE (N-[1-(2,3-dioleyloxy)propyl]-N,N,N-[…] chloride/dioleoylphosphatidyl ethanolamine)). […] After 4 hours at 37° C., the medium was replaced with DMEM containing 10% serum. At this point, 1 μM 12-O-tetradecanoylphorbol 13-acetate (TPA) was added to induce expression of c-fos and c-jun. Cells were extracted in guanidinium one hour later, and the c-fos and c-jun mRNA expression was determined by Northern blotting. Probes for human c-jun and c-fos were PCR products prepared using primers based on the published sequences thereof (respectively, Hattori et al., Proc. Natl. Acad. Sci. U.S.A., 1988, 85:9148, and Van Straaten et al., Proc. Natl. Acad. Sci. U.S.A., 1983, 80:3183).

c-fos mRNA = c-fos mRNA expression in TPA-induced A549 cells, Northern blotting; type: cell-based, human; settings: for c-fos mRNA % CONTROL: 400 nM oligonucleotide with LIPOFECTIN, control is TPA induction, at 1 hour, in A549 cells; for inhibition of c-fos mRNA expression: 400 nM oligonucleotide, TPA-induced A549 cells; for c-fos (expression, modified oligonucleotides): Table 10, TPA - no oligo = 100, basal = 3
Protocol: In order to evaluate the activity of potential c-fos and c-jun modulating oligonucleotides, A549 cells were grown in T-75 flasks until 80-90% confluent. (Cell line A549 is available from, inter alia, the American Type Culture Collection, Rockville, Md., as ATCC No. CCL-185.) At this time, the cells were washed twice with 10 mL of media (DMEM), followed by the addition of 5 mL of DMEM containing 20 μg/mL of LIPOFECTIN™ (i.e., DOTMA/DOPE (N-[1-(2,3-dioleyloxy)propyl]-N,N,N-[…] chloride/dioleoylphosphatidyl ethanolamine)). The oligonucleotides were added from a 10 μM stock solution to a final concentration of 400 nM, and the two solutions were mixed by swirling the flasks. After 4 hours at 37° C., the medium was replaced with DMEM containing 10% serum. At this point, 1 μM 12-O-tetradecanoylphorbol 13-acetate (TPA) was added to induce expression of c-fos and c-jun. Cells were extracted in guanidinium one hour later, and the c-fos and c-jun mRNA expression was determined by Northern blotting. Probes for human c-jun and c-fos were PCR products prepared using primers based on the published sequences thereof (respectively, Hattori et al., Proc. Natl. Acad. Sci. U.S.A., 1988, 85:9148, and Van Straaten et al., Proc. Natl. Acad. Sci. U.S.A., 1983, 80:3183).
Finally, it can also be seen from Table 5 that neither active oligonucleotide has any detectable effect on mRNA levels of the other active oligonucleotide's target.
Once oligonucleotides that modulate c-Fos or c-Jun are identified, derivative or modified oligonucleotides having the same sequence thereas are prepared. In order to evaluate the effect of chemical modifications to oligonucleotides to c-fos and c-jun, the modified oligonucleotides described in Tables 8 and 9 were prepared. The effect of the c-fos-targeted oligonucleotides on c-fos RNA levels were evaluated as described in Examples 2-3. […] Other modified oligonucleotides of the invention are evaluated in like fashion. In order to evaluate the effect of PNA antisense analogs, the PNA analogs of the invention are introduced into appropriate cell lines by microinjection according to the method of Hanvey et al. (Science, 1992, 258:1481). Intracellular delivery of PNA analogs is confirmed by the use of a fluorescently tagged PNA antisense analog conjugate such as, e.g., ISIS 14240.

Substance | c-fos mRNA % CONTROL (c-fos mRNA) [% CONTROL] | also measured
ACC-AGC-CCG-GGA-GCC-ACA-GG (dA*dC*dC*dA*dG*dC*dC*dC*dG*dG*dG*dA*dG*dC*dC*dA*dC*dA*dG*dG; antisense) [ISIS 10572] | – | c-jun mRNA % CONTROL (c-jun mRNA): 39 % CONTROL
ACC-GTG-GGA-ATG-AAG-TTG-GC (ACCGTGGGAATGAAGTTGGC; antisense; all phosphorothioate, sugars by position and methylation of C not given here) [ISIS 10632] | 63 | –
AGC-TCC-CTC-CTC-CGG-TTG-CG (AGCTCCCTCCTCCGGTTGCG; antisense; all phosphorothioate, sugars by position and methylation of C not given here) [ISIS 10633] | 24 | inhibition of c-fos mRNA expression (c-fos mRNA): 76%
A^SA^SG^ST^SC^SC^ST^ST^SG^SA^SG^SG^SC^SC^SC^SA^SC^SA^SG^SC (antisense AAGTCCTTGAGGCCCACAGC; all phosphorothioate, sugars by position and methylation of C not given here) [ISIS 11538] | – | c-fos (expression, modified oligonucleotides) (c-fos mRNA; A549 cells): 15
A^SA^SG^ST^SC^SC^ST^ST^SG^SA^SG^SG^SC^SC^SChu SA^SC^SA^SG^SC (AAGTCCTTGAGGCCCACAGC; all phosphorothioate, sugars by position and methylation of C not given here; further chemistry not fully specified) [ISIS 11200] | – | effect on c-fos mRNA levels during TPA induction (in words) (c-fos mRNA; A549 cells): some enhancement of c-fos modulation; c-fos (expression, modified oligonucleotides) (c-fos mRNA; A549 cells): 5
CAT-CGT-GGC-GGT-TAG-GCA-AA (CATCGTGGCGGTTAGGCAAA; antisense; all phosphorothioate, sugars by position and methylation of C not given here) [ISIS 10630] | 91 | –
CCC-CCA-CTT-CCG-CCC-ACT-AT (CCCCCACTTCCGCCCACTAT; antisense; DNA, all phosphorothioate, methylation of C not given here) [ISIS 10644] | 104 | –
CCC-CCG-ACC-GTC-TCT-CTT-CA (dC*dC*dC*dC*dC*dG*dA*dC*dC*dG*dT*dC*dT*dC*dT*dC*dT*dT*dC*dA; antisense) [ISIS 10581] | – | c-jun mRNA % CONTROL (c-jun mRNA): 24 % CONTROL; inhibition of c-jun mRNA expression (c-jun mRNA): 76%
CCC-CTC-CAG-CAG-CTA-CCC-TT (CCCCTCCAGCAGCTACCCTT; antisense; all phosphorothioate, sugars by position and methylation of C not given here) [ISIS 10640] | 87 | –
CCC-TCC-CAG-GCT-CAA-GTC-AT (CCCTCCCAGGCTCAAGTCAT; antisense; DNA, all phosphorothioate, methylation of C not given here) [ISIS 10646] | 100 | –
CCT-CAC-AGG-GCC-AGC-AGC-GT (CCTCACAGGGCCAGCAGCGT; antisense; all phosphorothioate, sugars by position and methylation of C not given here) [ISIS 10637] | 35 | –
CCT-GCC-TCG-GCC-TCC-CAA-AG (CCTGCCTCGGCCTCCCAAAG; antisense; DNA, all phosphorothioate, methylation of C not given here) [ISIS 10643] | 39 | –
CGC-ACC-TCC-ACT-CCC-GCC-TC (dC*dG*dC*dA*dC*dC*dT*dC*dC*dA*dC*dT*dC*dC*dC*dG*dC*dC*dT*dC; antisense) [ISIS 10571] | – | c-jun mRNA % CONTROL (c-jun mRNA): 100 % CONTROL
CGC-CCC-GCC-GCC-GCT-GCT-CA (dC*dG*dC*dC*dC*dC*dG*dC*dC*dG*dC*dC*dG*dC*dT*dG*dC*dT*dC*dA; antisense) [ISIS 10579] | – | c-jun mRNA % CONTROL (c-jun mRNA): 41 % CONTROL
CGC-GCC-CGG-CCT-GAA-AAT-TT (CGCGCCCGGCCTGAAAATTT; antisense; DNA, all phosphorothioate, methylation of C not given here) [ISIS 10642] | 87 | –
CGG-TCA-CTG-CTC-GTT-CGC-TG (CGGTCACTGCTCGTTCGCTG; antisense; all phosphorothioate, sugars by position and methylation of C not given here) [ISIS 10629] | 72 | –
GAG-AAC-ATC-ATC-GTG-GCG-GT (GAGAACATCATCGTGGCGGT; antisense; all phosphorothioate, sugars by position and methylation of C not given here) [ISIS 10631] | 118 | –
GCC-ACA-CTC-AGT-GCA-ACT-CT (dG*dC*dC*dA*dC*dA*dC*dT*dC*dA*dG*dT*dG*dC*dA*dA*dC*dT*dC*dT; antisense) [ISIS 10570] | – | c-jun mRNA % CONTROL (c-jun mRNA): 62 % CONTROL
GCT-GCG-CCG-CCG-ACG-TGA-CG (dG*dC*dT*dG*dC*dG*dC*dC*dG*dC*dC*dG*dA*dC*dG*dT*dG*dA*dC*dG; antisense) [ISIS 10578] | – | c-jun mRNA % CONTROL (c-jun mRNA): 37 % CONTROL
GGT-GCC-GGC-TGC-CTC-CCC-TT (GGTGCCGGCTGCCTCCCCTT; antisense; all phosphorothioate, sugars by position and methylation of C not given here) [ISIS 10638] | 22 | inhibition of c-fos mRNA expression (c-fos mRNA): 78%
GTG-TCT-CGC-CGG-GCA-TCT-CG (dG*dT*dG*dT*dC*dT*dC*dG*dC*dC*dG*dG*dG*dC*dA*dT*dC*dT*dC*dG; antisense) [ISIS 10580] | – | c-jun mRNA % CONTROL (c-jun mRNA): 19 % CONTROL; inhibition of c-jun mRNA expression (c-jun mRNA): 81%
TCC-CGT-CCC-CAG-AAG-CAG-TA (TCCCGTCCCCAGAAGCAGTA; antisense; DNA, all phosphorothioate, methylation of C not given here) [ISIS 10641] | 68 | –
TGC-CCC-TCA-GCC-CCC-GAC-GG (dT*dG*dC*dC*dC*dC*dT*dC*dA*dG*dC*dC*dC*dC*dC*dG*dA*dC*dG*dG; antisense) [ISIS 10583] | – | c-jun mRNA % CONTROL (c-jun mRNA): 20 % CONTROL; inhibition of c-jun mRNA expression (c-jun mRNA): 80%
TGC-TCG-CTG-CAC-ATG-CGG-TT (TGCTCGCTGCACATGCGGTT; antisense; all phosphorothioate, sugars by position and methylation of C not given here) [ISIS 10628] | 79 | –
TGC-TGC-TGC-CCT-TGC-GGT-GG (TGCTGCTGCCCTTGCGGTGG; antisense; all phosphorothioate, sugars by position and methylation of C not given here) [ISIS 10636] | 42 | –
TGG-CAC-GGA-GCG-GGC-TGT-CT (TGGCACGGAGCGGGCTGTCT; antisense; all phosphorothioate, sugars by position and methylation of C not given here) [ISIS 10635] | 12 | inhibition of c-fos mRNA expression (c-fos mRNA): 88%
TGG-TGC-CTG-CGT-GAT-ACT-CG (TGGTGCCTGCGTGATACTCG; antisense; DNA, all phosphorothioate, methylation of C not given here) [ISIS 10645] | 56 | –
TTG-CAG-GCA-GGT-CGG-TGA-GC (TTGCAGGCAGGTCGGTGAGC; antisense; all phosphorothioate, sugars by position and methylation of C not given here) [ISIS 10634] | 42 | –
